According to US7449617B2, “Plants with elevated levels of gallic acid/polyphenol oxidase and methods of generating such plants” (The Regents of the University of California, priority 2004, dated 2008):

Test system: buffered rumen fluid
Assay: In vitro gas production technique: incubation of alfalfa hays in buffered rumen fluid with added tannins, net ammonium-N in supernatant
Set-up: species or system cows
Conditions: for % Difference from control / Net ammonium-N in supernatant: 72 h; for Net ammonium-N in supernatant: 30 ml buffered rumen fluid, SD in parenthesis; for Effect on ammonia-N (in words): in vitro rumen fluid system, preliminary study
Procedure: A preliminary in vitro study was conducted to evaluate GA and TA (tannic acid) and to compare this with CT (a source of condensed tannins). The study utilized an in vitro gas production technique that has been established and validated at UC Davis. This system uses canulated cows as a rumen fluid donor. […] The reduction in protein degradation and ammonia nitrogen accumulation was dependant on type of tannins and levels used in each of the experiments. […] [table]

[1] = CUF101, tannin added at 2% DM, Experiment 1
[2] = CUF101, tannin added at 4% DM, Experiment 1
[3] = CUF101, tannin added at 5% DM, Experiment 2
[4] = CUF101, tannin added at 6% DM, Experiment 1
[5] = CUF101, tannin added at 10% DM, Experiment 2
[6] = CUF101, tannin added at 15% DM, Experiment 2
[7] = CUF101 alfalfa hay 200 mg, tannin added at 2% DM, Experiment 1
[8] = CUF101 alfalfa hay 200 mg, tannin added at 4% DM, Experiment 1
[9] = CUF101 alfalfa hay 200 mg, tannin added at 5% DM, Experiment 2
[10] = CUF101 alfalfa hay 200 mg, tannin added at 6% DM, Experiment 1
[11] = CUF101 alfalfa hay 200 mg, tannin added at 10% DM, Experiment 2
[12] = CUF101 alfalfa hay 200 mg, tannin added at 15% DM, Experiment 2
[13] = Sutter alfalfa hay 200 mg, tannin added at 2% DM, Experiment 1
[14] = Sutter alfalfa hay 200 mg, tannin added at 4% DM, Experiment 1
[15] = Sutter alfalfa hay 200 mg, tannin added at 5% DM, Experiment 2
[16] = Sutter alfalfa hay 200 mg, tannin added at 6% DM, Experiment 1
[17] = Sutter alfalfa hay 200 mg, tannin added at 10% DM, Experiment 2
[18] = Sutter alfalfa hay 200 mg, tannin added at 15% DM, Experiment 2
[19] = Sutter, tannin added at 2% DM, Experiment 1
[20] = Sutter, tannin added at 4% DM, Experiment 1
[21] = Sutter, tannin added at 5% DM, Experiment 2
[22] = Sutter, tannin added at 6% DM, Experiment 1
[23] = Sutter, tannin added at 10% DM, Experiment 2
[24] = Sutter, tannin added at 15% DM, Experiment 2

| Structure (SMILES) | % Difference from control [1] | % Difference from control [2] | % Difference from control [3] | % Difference from control [4] | % Difference from control [5] [%] | % Difference from control [6] [%] | Net ammonium-N in supernatant [7] | Net ammonium-N in supernatant [8] | Net ammonium-N in supernatant [9] | Net ammonium-N in supernatant [10] | Net ammonium-N in supernatant [11] | Net ammonium-N in supernatant [12] | Net ammonium-N in supernatant [13] | Net ammonium-N in supernatant [14] | Net ammonium-N in supernatant [15] | Net ammonium-N in supernatant [16] | Net ammonium-N in supernatant [17] | Net ammonium-N in supernatant [18] | % Difference from control [19] | % Difference from control [20] [%] | other results |
| --- | --- | --- | --- | --- | --- | --- | --- | --- | --- | --- | --- | --- | --- | --- | --- | --- | --- | --- | --- | --- | --- |
| O=C(O)c1cc(O)c(O)c(O)c1 [GA, 3,4,5-trihydroxybenzoic acid] | +3.20% | +4.92% | +1.68% | +5.63% | −1.33 | −3.54 | 3.610 (0.338) mg | 3.670 (0.404) mg | 3.450 (0.240) mg | 3.695 (0.305) mg | 3.348 (0.254) mg | 3.273 (0.234) mg | 3.540 (0.432) mg | 3.608 (0.564) mg | 3.415 (0.191) mg | 3.575 (0.431) mg | 3.348 (0.206) mg | 3.298 (0.177) mg | +0.48% | −2.41 | % Difference from control [21]: +0.21%; % Difference from control [22]: +1.48%; % Difference from control [23]: −1.76%; % Difference from control [24]: −3.23%; Effect on ammonia-N (in words): did not show any affect |
| O=C(OC[C@H]1O[C@@H](OC(=O)c2cc(O)c(O)c(OC(=O)c3cc(O)c(O)c(O)c3)c2)[C@H](OC(=O)c2cc(O)c(O)c(OC(=O)c3cc(O)c(O)c(O)c3)c2)[C@@H](OC(=O)c2cc(O)c(O)c(OC(=O)c3cc(O)c(O)c(O)c3)c2)[C@@H]1OC(=O)c1cc(O)c(O)c(OC(=O)c2cc(O)c(O)c(O)c2)c1)c1cc(O)c(O)c(OC(=O)c2cc(O)c(O)c(O)c2)c1 [TA, tannic acid] | −0.66% | −4.00% | −16.23% | −8.52% | −26.23 | −48.57 | 3.475 (0.269) mg | 3.358 (0.231) mg | 2.830 (0.435) mg | 3.200 (0.308) mg | 2.503 (0.177) mg | 1.745 (0.204) mg | 3.168 (0.737) mg | 3.250 (0.424) mg | 3.030 (0.167) mg | 2.998 (0.310) mg | 2.543 (0.208) mg | 1.888 (0.139) mg | −10.08% | −7.75 | % Difference from control [21]: −11.09%; % Difference from control [22]: −14.90%; % Difference from control [23]: −25.38%; % Difference from control [24]: −44.60%; Effect on ammonia-N (in words): effective in reducing ammonia-N |
